40 molecules from patent publication US11535593B2, “3-phosphoglycerate dehydrogenase inhibitors and uses thereof” (Raze Therapeutics, Inc., priority 2016, dated 2022) can be followed below.

Read-outs that look alike come from different tables or passages of the source.

The target of this test is T1, Full length (FL) 3-Phosphoglycerate Dehydrogenase (PHGDH) (Homo sapiens, UniProt O43175).
T1 construct: Full length (FL) 3-Phosphoglycerate Dehydrogenase (PHGDH) Diaphorase coupled assay (500 uM NAD)
T1 sequence (O43175 1-533): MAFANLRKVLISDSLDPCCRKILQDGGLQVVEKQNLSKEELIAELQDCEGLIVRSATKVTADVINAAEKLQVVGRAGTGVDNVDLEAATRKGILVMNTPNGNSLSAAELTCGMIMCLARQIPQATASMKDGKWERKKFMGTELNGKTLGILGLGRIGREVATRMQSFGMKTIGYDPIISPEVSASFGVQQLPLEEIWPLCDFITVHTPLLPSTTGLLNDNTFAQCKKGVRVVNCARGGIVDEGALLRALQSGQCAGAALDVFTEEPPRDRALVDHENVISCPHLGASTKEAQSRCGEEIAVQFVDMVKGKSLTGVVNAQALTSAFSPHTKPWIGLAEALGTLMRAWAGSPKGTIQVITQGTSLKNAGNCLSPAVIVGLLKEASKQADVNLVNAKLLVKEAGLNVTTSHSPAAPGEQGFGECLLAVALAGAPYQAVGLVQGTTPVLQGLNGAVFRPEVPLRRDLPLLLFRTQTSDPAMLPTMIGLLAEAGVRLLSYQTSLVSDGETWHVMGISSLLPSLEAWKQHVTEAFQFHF
In words: Full length (FL) PHGDH Diaphorase coupled assay (500 uM NAD). Format: biochemical. As for the experimental part:
Full length (FL) 3-Phosphoglycerate Dehydrogenase (PHGDH) Diaphorase coupled assay (500 uM NAD)
PHGDH activity was determined by detecting the NADH produced during the reaction. Diaphorase was used to catalyze the oxidation of NADH with the concomitant reduction of resazurin to the fluorescent product resorufin. Resorufin fluorescence quantitatively reflected the production of NADH by the PHGDH reaction. To drive the forward reaction, two enzymes in the serine synthesis pathway subsequent to PHGDH, Phosphoserine aminotransferase (PSAT1) and phosphoserine phosphatase (PSPH) were also added to the reaction.

In general, IC50 refers to the concentration needed to halve the response being measured. In the case of `COc1ccc2c(cc(C(=O)N[C@H](CO)c3ccc(C(=O)O)cc3Cl)n2C)c1Cl` [Compound I-21, 3-chloro-4-[(1S)-1-[(4-chloro-5-methoxy-1-methyl-1H-indol-2-yl)formamido]-2-hydroxyethyl]benzoic acid], the concentration for half-maximal inhibition (IC50) (5 nM PHGDH, 30° C., 60 minutes) lay within 0.01 to 1 µM. `COc1cc2c(cc(C(=O)N[C@H](CO)c3ccc(C(=O)O)cc3C)n2C)c(Cl)c1C` [Compound I-8]: under “5 nM PHGDH, 30° C., 60 minutes”, the IC50 was in the range of 0.01 to 1 µM. Still for that read-out and setting: next, `CC(NC(=O)c1cc2c(Cl)c(Cl)ccc2n1C)c1ccc(C(=O)O)cc1Cl` (stereo not shown) [Compound I-33]: 0.01 to 1 µM; `COc1cc2c(cc(C(=O)N[C@H](CO)c3ccc(CC(=O)O)cc3F)n2C)c(Cl)c1C` [Compound I-26]: 0.01 to 1 µM. `COc1ccc2c(cc(C(=O)N[C@H](CO)c3ccc(C(=O)O)cc3C)n2C)c1Cl` [Compound I-11] had an IC50 (5 nM PHGDH, 30° C., 60 minutes) of 0.01 to 1 µM. Same read-out and setting: the same measure for `CCC(C(=O)O)c1ccc([C@@H](CO)NC(=O)c2cc3c(Cl)c(Cl)ccc3n2C)cc1` (mixture of isomers) [Compound I-15, (±)-2-[4-[(1S)-1-[(4,5-dichloro-1-methyl-indole-2-carbonyl)amino]-2-hydroxy-ethyl]phenyl]butanoic Acid]: 0.01 to 1 µM; for `COc1ccc2c(cc(C(=O)N[C@H](CO)c3ccc(CC(=O)O)cc3)n2C)c1Cl` [Compound I-23, 2-{4-[(1S)-1-[(4-chloro-5-methoxy-1-methyl-1H-indol-2-yl)formamido]-2-hydroxyethyl]phenyl}acetic acid]: 0.01 to 1 µM; for `Cn1c(C(=O)NC(c2ccc(C(=O)O)cc2)C2CC2)cc2c(Cl)c(Cl)ccc21` (stereo not shown) [Compound I-42]: 1 to 5 µM. Still for that read-out and setting: next, `Cn1c(C(=O)NC(CC2CC2)c2ccc(C(=O)O)cc2)cc2c(Cl)c(Cl)ccc21` (stereo not shown) [Compound I-36]: 1 to 5 µM; `COc1cc2c(cc(C(=O)N[C@H](CO)c3ccc(C(=O)O)cc3F)n2C)c(Cl)c1Cl` [Compound I-20]: 0.01 to 1 µM; `COc1cc2c(cc(C(=O)N[C@H](CO)c3ccc(C(=O)O)cc3Cl)n2C)c(Cl)c1Cl` [Compound I-17, 3-chloro-4-[(1S)-1-[(4,5-dichloro-6-methoxy-1-methyl-1H-indol-2-yl)formamido]-2-hydroxyethyl]benzoic acid]: 0.01 to 1 µM. Consider `Cn1c(C(=O)N[C@H](CO)c2ccc(CC(=O)O)cc2)cc2c(Cl)c(Cl)ccc21` [Compound I-29, 2-{4-[(1S)-1-[(4,5-dichloro-1-methyl-1H-indol-2-yl)formamido]-2-hydroxyethyl]phenyl}acetic acid], for which, where the note is “5 nM PHGDH, 30° C., 60 minutes”, the IC50 is 0.01 to 1 µM.

Regarding `CCC(C(=O)O)c1ccc([C@@H](CO)NC(=O)c2cc3c(Cl)c(Cl)c(OC)cc3n2C)cc1` (mixture of isomers) [Compound I-4, (±)-2-[4-[(1S)-1-[(4,5-dichloro-6-methoxy-1-methyl-indole-2-carbonyl)amino]-2-hydroxy-ethyl]phenyl]butanoic Acid], where the note is “5 nM PHGDH, 30° C., 60 minutes”, the IC50 is 0.01 to 1 µM. `Cn1c(C(=O)N[C@H](CO)c2ccc(C(=O)O)cc2)cc2c(Cl)c(Cl)ccc21` [Compound I-43, 4-[(1S)-1-[(4,5-dichloro-1-methyl-1H-indol-2-yl)formamido]-2-hydroxyethyl]benzoic acid] showed an IC50 (5 nM PHGDH, 30° C., 60 minutes) of 0.01 to 1 µM. Take `CC(C(=O)O)c1ccc([C@@H](CO)NC(=O)c2cc3c(Cl)c(Cl)ccc3n2C)cc1` (stereo partly shown) [Compound I-14]: the concentration for half-maximal inhibition (IC50) (5 nM PHGDH, 30° C., 60 minutes) was in the range of 0.01 to 1 µM. On to `CC(NC(=O)c1cc2c(Cl)c(Cl)ccc2n1C)c1ccc(CC(=O)O)cc1F` (stereo not shown) [Compound I-31], for which, under “5 nM PHGDH, 30° C., 60 minutes”, the IC50 was in the range of 0.01 to 1 µM.

Molecule `COc1cc2c(cc(C(=O)N[C@H](CO)c3ccc(CC(=O)O)cc3F)n2C)c(Cl)c1F` [Compound I-24] registered a half-maximal inhibitory concentration (IC50) (5 nM PHGDH, 30° C., 60 minutes) of 0.01 to 1 µM. Still for that read-out and setting: next, `CC(NC(=O)c1cc2c(Cl)c(Cl)ccc2n1C)c1ccc(C(=O)O)cc1F` (stereo not shown) [Compound I-30]: 0.01 to 1 µM; `COc1cc2c(cc(C(=O)N[C@H](CO)c3ccc(CC(=O)O)cc3F)n2C)c(Cl)c1Cl` [Compound I-28, 2-{4-[(1S)-1-[(4,5-dichloro-6-methoxy-1-methyl-1H-indol-2-yl)formamido]-2-hydroxyethyl]-3-fluorophenyl}acetic acid]: 0.01 to 1 µM. As for `CC(C)C(C(=O)O)c1ccc([C@@H](CO)NC(=O)c2cc3c(Cl)c(Cl)ccc3n2C)cc1` (single isomer, unassigned) [Compound I-55, (2S or 2R)-2-[4-[(1S)-1-[(4,5-dichloro-1-methyl-indole-2-carbonyl)amino]-2-hydroxy-ethyl]phenyl]-3-methyl-butanoic acid], the half-maximal inhibitory concentration (IC50) (read-out: FL Diaphorase 500 μM NAD (PHGDH activity inhibition, IC50), 5 nM PHGDH, 30° C., 60 minutes) was 0.01 to 1 µM. Regarding `COc1ccc2c(cc(C(=O)N[C@H](CO)c3ccc(CC(=O)O)cc3Cl)n2C)c1Cl` [Compound I-9, 2-{3-chloro-4-[(1S)-1-[(4-chloro-5-methoxy-1-methyl-1H-indol-2-yl)formamido]-2-hydroxyethyl]phenyl}acetic acid], under “5 nM PHGDH, 30° C., 60 minutes”, the half-maximal inhibitory concentration (IC50) lay in the range of 0.01 to 1 µM. Still for that read-out and setting: next, `Cn1c(C(=O)N[C@H](CO)c2ccc(C(=O)O)cc2)cc2c(Cl)c(Cl)c(OCC(=O)NCCO)cc21` [Compound I-40, 4-[(1S)-1-[[4,5-Dichloro-6-[2-(2-hydroxyethylamino)-2-oxo-ethoxy]-1-methyl-indole-2-carbonyl]amino]-2-hydroxy-ethyl]benzoic Acid]: 0.01 to 1 µM; `CC(C)C(C(=O)O)c1ccc([C@@H](CO)NC(=O)c2cc3c(Cl)c(Cl)ccc3n2C)cc1` (single isomer, unassigned) [Compound I-54, (2R or 2S)-2-[4-[(1S)-1-[(4,5-dichloro-1-methyl-indole-2-carbonyl)amino]-2-hydroxy-ethyl]phenyl]-3-methyl-butanoic acid]: 0.01 to 1 µM. `Cn1c(C(=O)NC(CF)c2ccc(C(=O)O)cc2)cc2c(Cl)c(Cl)ccc21` (stereo not shown) [Compound I-6] showed an IC50 (5 nM PHGDH, 30° C., 60 minutes) of 0.01 to 1 µM. In turn, `Cc1cc(CC(=O)O)ccc1[C@@H](CO)NC(=O)c1cc2c(Cl)c(Cl)ccc2n1C` [Compound I-19] came in with a half-maximal inhibitory concentration (IC50) (5 nM PHGDH, 30° C., 60 minutes) of 0.01 to 1 µM.

As to `Cn1c(C(=O)N[C@H](CO)c2ccc(C(=O)O)cc2F)cc2c(Cl)c(Cl)ccc21` [Compound I-22], the concentration for half-maximal inhibition (IC50) (5 nM PHGDH, 30° C., 60 minutes) was in the range of 0.01 to 1 µM. Molecule `Cn1c(C(=O)NCc2ccc(C(=O)O)cc2)cc2c(Cl)c(Cl)ccc21` [Compound I-37] yielded an IC50 (5 nM PHGDH, 30° C., 60 minutes) of 1 to 5 µM. For `Cn1c(C(=O)NC(c2ccc(C(=O)O)cc2)C(F)(F)F)cc2c(Cl)c(Cl)ccc21` (racemic) [Compound I-38, (±)-4-(1-(4,5-Dichloro-1-methyl-1H-indole-2-carboxamido)-2,2,2-trifluoroethyl)benzoic Acid], the concentration for half-maximal inhibition (IC50) (5 nM PHGDH, 30° C., 60 minutes) was in the range of 1 to 5 µM. In turn, `CC(NC(=O)c1cc2c(Cl)c(Cl)ccc2n1C)c1ccc(CC(=O)O)cc1` (racemic) [Compound I-34, (±)-2-(4-(1-(4,5-Dichloro-1-methyl-1H-indole-2-carboxamido)ethyl)phenyl) acetic Acid] came in with an IC50 (5 nM PHGDH, 30° C., 60 minutes) of 0.01 to 1 µM. `COc1ccc2c(cc(C(=O)N[C@H](CO)c3ccc(C(C)(C)C(=O)O)cc3)n2C)c1Cl` [Compound I-2] yielded an IC50 (5 nM PHGDH, 30° C., 60 minutes) of 0.01 to 1 µM. Take `COc1cc2c(cc(C(=O)N[C@H](CO)c3ccc(C(=O)O)cc3F)n2C)c(Cl)c1C` [Compound I-12]: the half-maximal inhibitory concentration (IC50) (5 nM PHGDH, 30° C., 60 minutes) is 0.01 to 1 µM. In turn, `COc1cc2c(cc(C(=O)N[C@H](CO)c3ccc(C(=O)O)cc3Cl)n2C)c(Cl)c1C` [Compound I-16, 3-chloro-4-[(1S)-1-[(4-chloro-6-methoxy-1,5-dimethyl-1H-indol-2-yl)formamido]-2-hydroxyethyl]benzoic acid] returned an IC50 (5 nM PHGDH, 30° C., 60 minutes) of 0.01 to 1 µM. `Cn1c(C(=O)N[C@H](CO)c2ccc(C(=O)O)cc2Cl)cc2c(Cl)c(Cl)ccc21` [Compound I-27, 3-chloro-4-[(1S)-1-[(4,5-dichloro-1-methyl-1H-indol-2-yl)formamido]-2-hydroxyethyl]benzoic acid] had an IC50 (5 nM PHGDH, 30° C., 60 minutes) of 0.01 to 1 µM. As for `CC(NC(=O)c1cc2c(Cl)c(Cl)ccc2n1C)c1ccc(C(=O)O)cc1` (stereo not shown) [Compound I-44], the IC50 (5 nM PHGDH, 30° C., 60 minutes) was in the range of 0.01 to 1 µM. With `Cn1c(C(=O)N[C@H](CO)c2ccc(C(C)(C)C(=O)O)cc2)cc2c(Cl)c(Cl)ccc21` [Compound I-1], the IC50 (5 nM PHGDH, 30° C., 60 minutes) was 0.01 to 1 µM. Regarding `Cn1c(C(=O)NC(C)(C)c2ccc(C(=O)O)cc2)cc2c(Cl)c(Cl)ccc21` [Compound I-35], the IC50 (5 nM PHGDH, 30° C., 60 minutes) lay within 1 to 5 µM. On to `Cc1cc(C(=O)O)ccc1[C@@H](CO)NC(=O)c1cc2c(Cl)c(Cl)ccc2n1C` [Compound I-18], for which the IC50 (5 nM PHGDH, 30° C., 60 minutes) fell in the range of 0.01 to 1 µM. `Cn1c(C(=O)N[C@H](CO)c2ccc(C3(C(=O)O)CC3)cc2)cc2c(Cl)c(Cl)ccc21` [Compound I-3] had an IC50 (5 nM PHGDH, 30° C., 60 minutes) of 0.01 to 1 µM. Under “5 nM PHGDH, 30° C., 60 minutes”, `COc1cc2c(cc(C(=O)N[C@H](CO)c3ccc(C(=O)O)cc3C)n2C)c(Cl)c1Cl` [Compound I-7] gave an IC50 of 0.01 to 1 µM. Turning to `CC(C)C(C(=O)O)c1ccc([C@@H](CO)NC(=O)c2cc3c(Cl)c(Cl)ccc3n2C)cc1` (mixture of isomers) [Compound I-56, (±)-2-[4-[(1S)-1-[(4,5-dichloro-1-methyl-indole-2-carbonyl)amino]-2-hydroxy-ethyl]phenyl]-3-methyl-butanoic Acid], the IC50 (5 nM PHGDH, 30° C., 60 minutes) is 0.01 to 1 µM.
